Experimental findings from US8841348B2, “Anti-inflammatory formulation” (AKL Inflammatory Limited, priority 2005, dated 2014) are described below.

This assay in a line: Applicant's clinical observation of paeonol and apocynin alone versus together. It is filed as in vivo. The note with it: used on their own. An excerpt: The applicant has noted that the effect of the combination of paeonol and apocynin together is rather better than would have been expected from studies using either of these alone.

Each structure is given as a SMILES string.

In the case of `COc1cc(C(C)=O)ccc1O` [apocynin, 4-hydroxy-3-methoxyacetophenone], the “anti-inflammatory and/or analgesic activity” value is “did not show anti-inflammatory and/or analgesic activity that could be clinically observed”.

For the compound `COc1ccc(C(C)=O)c(O)c1` [paeonol, 2-hydroxy-4-methoxy-acetophenone], the “anti-inflammatory and/or analgesic activity” value is on record as “did not show anti-inflammatory and/or analgesic activity that could be clinically observed”.
